According to patent US10137171B2, “Methods of treatment using a pentapeptide derived from the C-Terminus of Glucagon-Like Peptide 1 (GLP-1)” (The General Hospital Corporation, priority 2011, dated 2018):
Where no end group is shown, it is not given here.

How the values were obtained:
[1] = tested on: insulin-resistant isolated mouse hepatocytes; assay: Glucose production assay in isolated hepatocytes; format: cell-based; details: stimulated by cAMP/dexamethasone/lactate; basal glucose production not suppressed
Source text: FIG. 8 is a bar graph showing suppression of glucose production by the pentapeptide GLP-1(32-36)amide (LVKGRamide (SEQ ID NO:1)) in insulin-resistant hepatocytes. Mice (male, C57bl/6) from 12-19 weeks of age were fasted overnight (16 hrs) and primary hepatocytes were isolated using a collagen and perfusion gradient purification. Cells were first seeded using a Dulbecco's modified Eagle's medium (DMEM) supplemented with 10% FBS, 1 g/L glucose, 2 mmol/1 sodium pyruvate, 1 micromol/L dexamethasone, and 0.1 micromol/L insulin, and later maintained in DMEM with 0.2% BSA, 1 g/L glucose, 0.1 micromol/L dexamethasone, and lnmol/L insulin. […] The readings were then normalized to total protein content determined from whole-cell lysates. […]
Primary hepatocytes (2×10^5 cells per well in twelve-well plates) were pre-treated with GLP-1(32-36)amide for 1 hour followed by the stimulation of insulin resistance by the addition of cAMP (10 microM)/dexamethasone ([…])/sodium lactate (2 mM) in glucose-free DMEM without phenol red. […] The readings were then normalized to total protein content determined from whole-cell lysates.

diet-induced obese mice = assay: Intraperitoneal glucose tolerance test (ipGTT); format: in vivo, mouse; details: glucose 2 g/kg BW ip, overnight fasted, VHFD 24 weeks
Procedure: FIGS. 5C-D are a pair of line graphs Plasma glucose levels (FIG. 5C) and (FIG. 5D) Plasma insulin levels after an intraperitoneal glucose administration ([…] BW ip) in overnight fasted mice fed in VHFD for 24-weeks and 16-weeks of continuous infusions of vehicle or GLP-1(32-36)amide. ***p<4E-03 vehicle vs. GLP-1(32-36)amide, *p<0.01 vehicle vs. GLP-1(32-36)amide, **p<0.004 vehicle vs. GLP-1(32-36)amide, *****p<1.7E-05 vehicle vs. GLP-1(32-36)amide, ****p<6.7 E-04 vehicle vs. GLP-1(32-36)amide.
Mice were maintained in a normal light/dark cycle according to the standard protocols of the MGH Animal Care and Use Committee. Mice were tested with age matched or litter mate controls and 6 mice per group are required. […] The following morning the mice were prepared for the glucose tolerance test: animals were weighed, the tail was nicked with a fresh razor blade by a horizontal cut of the very end, ˜35 to 50 microliters of blood is massaged from the tail to an eppendorf tube which is immediately placed on ice, baseline blood glucose is measured by the glucose oxidase method using a Glucometer Elite glucometer, and 2 grams/kg body weight of 20% D-glucose is drawn up in a Beckton Dickenson D 29 gage ½″ insulin syringe (one unit of D-glucose for every gram of body weight). Animals were then transferred to individually labeled 1000 cc cardboard soup cups with the lid liners removed.
Following animal preparation, glucose was injected into the intraperitoneal cavity. At 10, 20, 30, 60, 120, and 140 minutes blood glucose is sampled from the tail of each mouse by gently massaging a small drop of blood onto the glucometer strip. Glucose injections and blood glucose sampling is timed to take approximately the same amount of time per animal (i.e. 25 animals are injected in 12 minutes and blood glucose sampling of those same 25 animals should also take about 12 minutes) so that the sample times are accurate for each animal.

[2] = Plasma peptide concentrations by LC-MS after continuous infusion; format: in vivo, mouse
Procedure: (§1) Mice were given single i.v. injections of the propeptide, GLP-1(9-36)amide and blood samples were taken at times 2, 5, and 10 min. Plasma was assayed for the presence of GLP-1(9-36)amide, GLP-1(28-36)amide, and GLP-1(32-36)amide by electron spray mass spectrometry (ES-MS. Pooled plasma samples collected after a 28 day continuous infusion of GLP-1(9-36)amide or GLP-1(28-36)amide in mice were assayed for peptide concentrations by liquid chromatography mass spectrometry (LC-MS).

[3] = Mass spectrometry of mouse plasma after i.v. injection of GLP-1(9-36)amide; format: in vivo
Procedure: FIG. 7B is a line graph showing the results of experiments involving intravenous push injection of GLP-1(9-36)amide, 32-36 amide, and […] into mice, collecting blood plasma at 2, 5, and 10 min, and analyzing the peptide profiles by liquid chromatography-mass spectrometry (LC-MS). Relative amounts of peptides at times indicated are shown. Y-axis, arbitrary units
as §1

[4] = pooled mouse plasma after four weeks infusion

| level at time molar at 672 h ([2]; mouse, plasma, 2.0 mg/ml in the osmopump, four weeks infusion, read-out: plasma levels of GLP-1(28-36)amide in mice infused with GLP-1(28-36)amide) | plasma levels of GLP-1(28-36)amide in mice infused with GLP-1(9-36)amide [2, 4] | presence of nona and pentapeptides in plasma after injection of GLP-1(9-36)amide ([3]; mouse plasma 2 min after i.v. injection, mass spectrometry) | conversion of GLP-1(9-36)amide to the nona and pentapeptides in the circulation ([3]; mouse plasma, i.v. pulse injection) | plasma concentration of GLP-1(9-36)amide during its continuous infusion [2, 4] | Substance | glucose production (formation) [1] | glycemic response in ipGTT (diet-induced obese mice; 16 weeks infusion (FIG. 5C)) | insulin response in ipGTT (diet-induced obese mice; 16 weeks infusion (FIG. 5D)) |
| --- | --- | --- | --- | --- | --- | --- | --- | --- |
| ~0.24 nM | ~0.1 nM | – | – | – | FIAWLVKGR-NH2 [GLP-1(28-36)amide, FIAWLVKGRamide] | dose-dependently suppressed | normal glycemic response | strong insulin response |
| – | – | readily detected | rapidly converted | not detectable | GLP-1(9-36)amide | – | – | – |
